Reference: US20260265233A1, “BENZOTHIOPHENE DERIVATIVES AS RXFP1 AGONISTS” (BRISTOL-MYERS SQUIBB COMPANY, priority 2021, published 2026)

Molecular target: T1, human RXFP1 (Homo sapiens, UniProt Q9HBX9)
T1 construct: expressed in transfected cells
T1 sequence (Q9HBX9 1-757): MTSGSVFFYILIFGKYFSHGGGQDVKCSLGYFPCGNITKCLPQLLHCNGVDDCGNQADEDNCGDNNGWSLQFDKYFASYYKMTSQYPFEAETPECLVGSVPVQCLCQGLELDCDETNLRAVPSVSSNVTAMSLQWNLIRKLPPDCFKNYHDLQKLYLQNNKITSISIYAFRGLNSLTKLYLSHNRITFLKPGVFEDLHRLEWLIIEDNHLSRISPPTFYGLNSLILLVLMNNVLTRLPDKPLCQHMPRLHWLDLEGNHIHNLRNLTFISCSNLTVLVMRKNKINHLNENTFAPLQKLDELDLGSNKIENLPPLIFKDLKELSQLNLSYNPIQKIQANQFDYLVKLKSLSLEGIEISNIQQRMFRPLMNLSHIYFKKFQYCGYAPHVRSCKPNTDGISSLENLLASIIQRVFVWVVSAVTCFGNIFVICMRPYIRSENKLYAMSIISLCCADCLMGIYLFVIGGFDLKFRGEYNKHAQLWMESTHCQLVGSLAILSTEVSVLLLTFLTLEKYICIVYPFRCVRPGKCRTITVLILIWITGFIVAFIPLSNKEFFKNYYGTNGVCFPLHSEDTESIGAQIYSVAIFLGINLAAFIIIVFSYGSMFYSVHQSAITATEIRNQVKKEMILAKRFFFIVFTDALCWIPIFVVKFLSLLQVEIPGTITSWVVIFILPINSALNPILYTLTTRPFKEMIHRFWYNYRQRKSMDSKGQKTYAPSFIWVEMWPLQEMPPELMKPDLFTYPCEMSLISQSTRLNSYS
Assay: hRXFP1 HEK293 cAMP assay (HTRF)
Type: cell-based
Conditions: HEK293 cells stably expressing human RXFP1; 30 min at rt; intracellular cAMP by HTRF
In short: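 HEK293 cells stably expressing human RXFP1 treated 30 min at rt with compound (0.010 nM to 50 μM, 2% DMSO) in HBSS/HEPES buffer with 0.5 mM IBMX. Intracellular cAMP measured by HTRF (665/590 nm ratio) against a cAMP standard curve; potency fitted by 4-parameter logistic.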

| SMILES | EC50 [nM] |
| --- | --- |
| COc1ccc(C2=NOC3(CCN(C(=O)C(C)(C)CO)CC3)C2)cc1C(=O)Nc1c(C(=O)Nc2ccc(F)c(C(F)(F)F)c2)sc2cc(C(F)(F)F)ccc12 [Example 269, N-(4-fluoro-3-(trifluoromethyl)phenyl)-3-(5-(8-(3-hydroxy-2,2-dimethyl-propanoyl)-1-oxa-2,8-diazaspiro[4.5]dec-2-en-3-yl)-2-methoxy-benzamido)-6-(trifluoromethyl) benzo[b] thiophene-2-carboxamide] | 737 |
| COc1ccc(C2=NOC3(CCNCC3)C2)cc1C(=O)Nc1c(C(=O)Nc2ccc(F)c(C(F)(F)F)c2)sc2cc(C(F)(F)F)ccc12 [Example 272, N-(4-fluoro-3-(trifluoromethyl)phenyl)-3-(2-methoxy-5-(1-oxa-2,8-diazaspiro[4.5]dec-2-en-3-yl)benzamido)-6-(trifluoromethyl) benzo[b] thiophene-2-carboxamide] | 900 |
| COc1ccc(N2CCC3(C2)CN(C2COC2)C3)cc1C(=O)Nc1c(C(=O)Nc2ccc(F)c(C(F)(F)F)c2)sc2cc(C(F)(F)F)ccc12 [Example 208, N-(4-fluoro-3-(trifluoromethyl)phenyl)-3-(2-methoxy-5-(2-(oxetan-3-yl)-2,6-diazaspiro[3.4]octan-6-yl)benzamido)-6-(trifluoromethyl) benzo[b] thiophene-2-carboxamide] | 1480 |
| COc1cc(C)c(C(=O)NCC2(S(C)(=O)=O)CC2)cc1C(=O)Nc1c(C(=O)Nc2ccc(F)c(C(F)(F)F)c2)sc2cc(C(F)(F)F)ccc12 [Example 187, N1-(2-((4-fluoro-3-(trifluoromethyl)phenyl)carbamoyl)-6-(trifluoromethyl)benzo[b]thiophen-3-yl)-6-methoxy-4-methyl-N3-((1-(methylsulfonyl)cyclopropyl)methyl) isophthalamide] | 328 |
| COc1ccc(C2CC3(C2)CN(C2COC2)C3)cc1C(=O)Nc1c(C(=O)Nc2ccc(F)c(C(F)(F)F)c2)sc2cc(C(F)(F)F)ccc12 [Example 106, N-(4-fluoro-3-(trifluoromethyl)phenyl)-3-(2-methoxy-5-(2-(oxetan-3-yl)-2-azaspiro[3.3]heptan-6-yl)benzamido)-6-(trifluoromethyl) benzo[b] thiophene-2-carboxamide] | 248 |
| COc1ccc(C2CCCC(NC3COC3)C2)cc1C(=O)Nc1c(C(=O)Nc2ccc(F)c(C(F)(F)F)c2)sc2cc(C(F)(F)F)ccc12 (single isomer, unassigned) [Example 61, N-(4-fluoro-3-(trifluoromethyl)phenyl)-3-(2-methoxy-5-(3-(oxetan-3-ylamino)cyclohexyl)benzamido)-6-(trifluoromethyl) benzo[b] thiophene-2-carboxamide] | 599 |
| COc1ccc(C2CCN(C(=O)C3(C)COC3)C2)cc1C(=O)Nc1c(C(=O)Nc2ccc(F)c(C(F)(F)F)c2)sc2cc(C(F)(F)F)ccc12 (stereo not shown) [Example 135, N-(4-fluoro-3-(trifluoromethyl)phenyl)-3-(2-methoxy-5-(1-(3-methyloxetane-3-carbonyl)pyrrolidin-3-yl)benzamido)-6-(trifluoromethyl) benzo[b] thiophene-2-carboxamide] | 488 |
| COc1ccc(N2CCC[C@@H](NC(=O)CN(C)C)C2)cc1C(=O)Nc1c(C(=O)Nc2ccc(F)c(C(F)(F)F)c2)sc2cc(C(F)(F)F)ccc12 [Example 209, (R)-3-(5-(3-(2-(dimethylamino)acetamido)piperidin-1-yl)-2-methoxy-benzamido)-N-(4-fluoro-3-(trifluoromethyl)phenyl)-6-(trifluoromethyl) benzo[b] thiophene-2-carboxamide] | 1480 |

Results, then the compound that gave them:

| EC50 [nM] | SMILES |
| --- | --- |
| 4420 | COc1ccc(C2CCCN(CC(=O)N(C)C)C2)cc1C(=O)Nc1c(C(=O)Nc2ccc(F)c(C(F)(F)F)c2)sc2cc(C(F)(F)F)ccc12 (single isomer, unassigned) [Example 101, 3-(5-(1-(2-(dimethylamino)-2-oxoethyl)piperidin-3-yl)-2-methoxy-benzamido)-N-(4-fluoro-3-(trifluoromethyl)phenyl)-6-(trifluoromethyl) benzo[b] thiophene-2-carboxamide] |
| 4.9 | COc1ccc(C2=NOC3CC(CO)CC23)cc1C(=O)Nc1c(C(=O)Nc2ccc(F)c(C(F)(F)F)c2)sc2cc(C(F)(F)F)ccc12 (single isomer, unassigned) [Example 268, N-[4-fluoro-3-(trifluoromethyl)phenyl]-3-{5-[5-(hydroxymethyl)-3aH,4H,5H,6H, 6aH-cyclopenta[d] [1,2]oxazol-3-yl]-2-methoxy-benzamido}-6-(trifluoromethyl)-1-benzothiophene-2-carboxamide] |
| 2080 | COc1ccc(C2CC3(C2)CN(C(=O)CN(C)C)C3)cc1C(=O)Nc1c(C(=O)Nc2ccc(F)c(C(F)(F)F)c2)sc2cc(C(F)(F)F)ccc12 [Example 206, 3-(5-(2-(dimethylglycyl)-2-azaspiro[3.3]heptan-6-yl)-2-methoxy-benzamido)-N-(4-fluoro-3-(trifluoromethyl)phenyl)-6-(trifluoromethyl) benzo[b] thiophene-2-carboxamide] |
| 1310 | COc1ccc(C2=NOC3CC(NC(=O)C(C)(C)O)CC23)cc1C(=O)Nc1c(C(=O)Nc2ccc(F)c(C(F)(F)F)c2)sc2cc(C(F)(F)F)ccc12 (stereo not shown) [Example 260, N-[4-fluoro-3-(trifluoromethyl)phenyl]-3-{5-[5-(2-hydroxy-2-methyl-propanamido)-3aH,4H,5H,6H, 6aH-cyclopenta[d] [1,2]oxazol-3-yl]-2-methoxy-benzamido}-6-(trifluoromethyl)-1-benzothiophene-2-carboxamide] |
| 689 | COc1ccc(C(=O)NC(C)(C)CO)cc1C(=O)Nc1c(C(=O)Nc2ccc(F)c(C(F)(F)F)c2)sc2cc(C(F)(F)F)ccc12 [Example 190, N3-(2-((4-fluoro-3-(trifluoromethyl)phenyl)carbamoyl)-6-(trifluoromethyl)benzo[b]thiophen-3-yl)-N1-(1-hydroxy-2-methylpropan-2-yl)-4-methoxy-isophthalamide] |
| 1390 | COc1ccc(CNCC(C)(C)O)cc1C(=O)Nc1c(C(=O)Nc2ccc(F)c(C(F)(F)F)c2)sc2cc(C(F)(F)F)ccc12 [Example 236, N-(4-fluoro-3-(trifluoromethyl)phenyl)-3-(5-(((2-hydroxy-2-methylpropyl)amino)methyl)-2-methoxy-benzamido)-6-(trifluoromethyl) benzo[b] thiophene-2-carboxamide] |
| 314 | COc1ccc(C2CCN(CCS(C)(=O)=O)C2)cc1C(=O)Nc1c(C(=O)Nc2ccc(F)c(C(F)(F)F)c2)sc2cc(C(F)(F)F)ccc12 (single isomer, unassigned) [Example 153, N-(4-fluoro-3-(trifluoromethyl)phenyl)-3-(2-methoxy-5-(1-(2-(methylsulfonyl)ethyl)pyrrolidin-3-yl)benzamido)-6-(trifluoromethyl) benzo[b] thiophene-2-carboxamide] |
| 1500 | COc1ccc(CNC(C)(C)CO)cc1C(=O)Nc1c(C(=O)Nc2ccc(F)c(C(F)(F)F)c2)sc2cc(C(F)(F)F)ccc12 [Example 235, N-(4-fluoro-3-(trifluoromethyl)phenyl)-3-(5-(((1-hydroxy-2-methylpropan-2-yl)amino)methyl)-2-methoxy-benzamido)-6-(trifluoromethyl) benzo[b] thiophene-2-carboxamide] |
| 1400 | COc1ccc(N2CCCC(C(=O)NCCO)C2)cc1C(=O)Nc1c(C(=O)Nc2ccc(F)c(C(F)(F)F)c2)sc2cc(C(F)(F)F)ccc12 (single isomer, unassigned) [Example 230, 1-(3-((2-((4-fluoro-3-(trifluoromethyl)phenyl)carbamoyl)-6-(trifluoromethyl)benzo[b]thiophen-3-yl)carbamoyl)-4-methoxyphenyl)-N-(2-hydroxyethyl) piperidine-3-carboxamide] |
| 111 | COc1ccc(N2CCCCS2(=O)=O)cc1C(=O)Nc1c(C(=O)Nc2ccc(F)c(C(F)(F)F)c2)sc2cc(C(F)(F)F)ccc12 [Example 10, 3-(5-(1,1-dioxido-1,2-thiazinan-2-yl)-2-methoxybenzamido)-N-(4-fluoro-3-(trifluoromethyl)phenyl)-6-(trifluoromethyl)benzo[b]thiophene-2-carboxamide] |
| 1150 | COc1ccc(C2CCCN(CCS(C)(=O)=O)C2)cc1C(=O)Nc1c(C(=O)Nc2ccc(F)c(C(F)(F)F)c2)sc2cc(C(F)(F)F)ccc12 (single isomer, unassigned) [Example 86, N-(4-fluoro-3-(trifluoromethyl)phenyl)-3-(2-methoxy-5-(1-(2-(methylsulfonyl)ethyl)piperidin-3-yl)benzamido)-6-(trifluoromethyl) benzo[b] thiophene-2-carboxamide] |
